Laboratory results taken from patent US12024707B2, “Methods and compositions for modulating lncRNAs and methods of treatment based on lncRNA expression” (Washington University, priority 2020, dated 2024).
Counter-ions that a name gives are not always drawn.

Tests used:
[1] = tested on: HT29 RAMS11 overexpressing cells; test: High-throughput viability assay (resazurin), 119 FDA-approved anticancer drugs, RAMS11 overexpressing cells (Clone1, Clone2); settings: for Viability Fold Change: 72 h, vs empty vector control; for increase in drug resistance in HT29 RAMS11 overexpressing cells: topoisomerase inhibitors, vs empty vector cells; for increase in cellular viability compared with empty vector control cell line: HT29 RAMS11 overexpressing vs empty vector cells, treated 72 h
[2] = tested on: LoVo RAMS11 CRISPR KO cells; test: Individual drug IC50 / cell viability assays in RAMS11 CRISPR KO cells; format: cell-based; settings: for increase in drug sensitivity: LoVo RAMS11 CRISPR KO vs wild-type treated cells, 0.5 μM doxorubicin or 0.7 μM epirubicin
Method: The NIH approved oncology library of 119 drugs (AOD6 plate 4825-1 and AOD6 plate 4826) was received from the NIH National Cancer Institute DTP Developmental Therapeutics Program. Drugs were diluted in DMSO to 1 mM and the well assignments were rearranged so drugs were confined to the inner 60 wells of 96-well plates. HT29 RAMS11 overexpressing Clone1 and Clone2 cell lines were seeded at 5000 cells per well in a 96-well plate. The next day serial diluted drug was added to pre-seeded plates in media containing 1% DMSO vehicle, using a Robbins Hydra 96 micro dispenser. Two 96-well plates of cells were used as vehicle controls. The plates were incubated for 3 days. Percent viability was scored by incubating cells for 3 h with resazurin sodium (0.023 mg/mL, Sigma R7017). The reaction was stopped by the addition of SDS (1% final concentration). Fluorescence Ex/Em 540/590 was read in a Biotek Synergy H1 plate reader (Winooski, VT). The fluorescence values for the vehicle plates were averaged and percent viability was determined by the formula: Percent viability=[…]/(average vehicle−average resazurin in media blank)×100. We removed drugs that were undetectable, or out of range, by resazurin assay, leaving 118 drugs to assess in the study (TABLE 3). Values with more than a 1.5-fold change in both RAMS11 Clone1 and Clone2 overexpressing cell lines were used to determine significance. Individual drug IC50 assays were done in a similar manner as described above with CRISPR KO cells. Assays were repeated more than three times.

[3] = tested on: SW620 cells with silenced RAMS11; test: Drug IC50 / cell viability assays in cells with transient silencing of RAMS11
[4] = OE1 (RAMS11 overexpression clone 1), 0.1 uM drug
[5] = OE1 (RAMS11 overexpression clone 1), 1 uM drug
[6] = OE1 (RAMS11 overexpression clone 1), 10 uM drug
[7] = OE2 (RAMS11 overexpression clone 2), 0.1 uM drug
[8] = OE2 (RAMS11 overexpression clone 2), 1 uM drug
[9] = OE2 (RAMS11 overexpression clone 2), 10 uM drug

Compound | Viability Fold Change [1, 4] | Viability Fold Change [1, 5] | Viability Fold Change [1, 6] | Viability Fold Change [1, 7] | Viability Fold Change [1, 8] | Viability Fold Change [1, 9] | increase in drug resistance in HT29 RAMS11 overexpressing cells [1] | increase in drug sensitivity [2] [fold] | increase in cellular viability compared with empty vector control cell line [1] | effect of cell viability ([2]; LoVo RAMS11 CRISPR KO cells) | effect of cell viability ([1]; HT29 RAMS11 overexpressing cells) | increase in drug sensitivity ([3]; SW620, RAMS11 siRNA1 relative to scrambled control) [fold] | increase in drug sensitivity ([3]; SW620, RAMS11 siRNA2 relative to scrambled control) [fold]
CCCCC(=O)OCC(=O)[C@]1(O)Cc2c(O)c3c(c(O)c2[C@@H](O[C@H]2C[C@H](NC(=O)C(F)(F)F)[C@H](O)[C@H](C)O2)C1)C(=O)c1c(OC)cccc1C3=O [Valrubicin] | 0.9645 | 1.163 | 1.863 | 0.9166 | 1.213 | 1.792 | – | – | – | – | – | – | –
COc1cc2c(Nc3ccc(Br)cc3F)ncnc2cc1OCC1CCN(C)CC1 [Vandetanib] | 0.9025 | 0.8127 | 1.181 | 0.971 | 0.9162 | 1.142 | – | – | – | – | – | – | –
CCCS(=O)(=O)Nc1ccc(F)c(C(=O)c2c[nH]c3ncc(-c4ccc(Cl)cc4)cc23)c1F [Vemurafenib] | 0.6921 | 0.4381 | 0.569 | 0.762 | 0.5468 | 0.6144 | – | – | – | – | – | – | –
CC[C@]1(O)C[C@@H]2CN(CCc3c([nH]c4ccccc34)[C@@](C(=O)OC)(c3cc4c(cc3OC)N(C)[C@H]3[C@@](O)(C(=O)OC)[C@H](OC(C)=O)[C@]5(CC)C=CCN6CC[C@]43[C@@H]65)C2)C1 [Vinblastine sulfate] | 3.198 | 3.402 | 3.682 | 2.825 | 3.412 | 3.815 | – | – | – | – | – | – | –
CCC1=C[C@@H]2CN(C1)Cc1c([nH]c3ccccc13)[C@@](C(=O)OC)(c1cc3c(cc1OC)N(C)[C@H]1[C@@](O)(C(=O)OC)[C@H](OC(C)=O)[C@]4(CC)C=CCN5CC[C@]31[C@@H]54)C2 [Vinorelbine tartrate] | 0.9568 | 1.194 | 2.913 | 0.9481 | 1.067 | 2.913 | – | – | – | – | – | – | –
CS(=O)(=O)c1ccc(C(=O)Nc2ccc(Cl)c(-c3ccccn3)c2)c(Cl)c1 [Vismodegib] | 0.8416 | 0.9134 | 0.9421 | 0.9752 | 0.846 | 0.8976 | – | – | – | – | – | – | –
O=C(CCCCCCC(=O)Nc1ccccc1)NO [Vorinostat] | 1.123 | 0.8948 | 1.604 | 1.068 | 1.159 | 1.356 | – | – | – | – | – | – | –
O=P(O)(O)C(O)(Cn1ccnc1)P(=O)(O)O [Zoledronic acid] | 0.9494 | 0.9911 | 1.01 | 0.9595 | 1.055 | 1.082 | – | – | – | – | – | – | –
COc1cccc2c1C(=O)c1c(O)c3c(c(O)c1C2=O)C[C@@](O)(C(C)=O)C[C@@H]3O[C@H]1C[C@H](N)[C@H](O)[C@H](C)O1 [daunorubicin HCl, reference compound] | 1.103 | 2.258 | 3.761 | 1.084 | 2.098 | 3.726 | at least a two-fold increase in drug resistance | – | – | – | – | – | –
COc1cccc2c1C(=O)c1c(O)c3c(c(O)c1C2=O)C[C@@](O)(C(=O)CO)C[C@@H]3O[C@H]1C[C@H](N)[C@H](O)[C@H](C)O1 [doxorubicin HCl, reference compound] | 1.113 | 1.973 | 2.438 | 1.165 | 1.939 | 2.403 | at least a two-fold increase in drug resistance | 1.5 | – | – | – | – | –
COc1cccc2c1C(=O)c1c(O)c3c(c(O)c1C2=O)C[C@@](O)(C(=O)CO)C[C@@H]3O[C@H]1C[C@H](N)[C@@H](O)[C@H](C)O1 [epirubicin HCl, reference compound] | – | – | – | – | – | – | at least a two-fold increase in drug resistance | 1.5 | – | – | – | – | –
O=c1[nH]c(=O)n([C@H]2C[C@H](O)[C@@H](CO)O2)cc1F [floxuridine, reference compound] | 1.541 | 2.291 | 2.964 | 1.569 | 2.375 | 3.091 | – | – | greatest resistance | – | – | – | –
Nc1ccn([C@@H]2O[C@H](CO)[C@@H](O)C2(F)F)c(=O)n1 [gemcitabine, reference compound] | – | 3.429 | 2.39 | 1.507 | 3.028 | 2.499 | – | – | greatest resistance | – | – | – | –
CC(=O)[C@]1(O)Cc2c(O)c3c(c(O)c2[C@@H](O[C@H]2C[C@H](N)[C@H](O)[C@H](C)O2)C1)C(=O)c1ccccc1C3=O [idarubicin HCl, reference compound] | – | – | – | – | – | – | at least a two-fold increase in drug resistance | – | – | – | – | – | –
CCc1c2c(nc3ccc(OC(=O)N4CCC(N5CCCCC5)CC4)cc13)-c1cc3c(c(=O)n1C2)COC(=O)[C@]3(O)CC [irinotecan] | – | – | – | – | – | – | – | – | – | did not see a significant effect | did not see a significant effect | > 3.17 | > 11.8
CC[C@@]1(O)C(=O)OCc2c1cc1n(c2=O)Cc2cc3c(CN(C)C)c(O)ccc3nc2-1 [topotecan hydrochloride, reference compound] | – | – | – | – | – | – | at least a two-fold increase in drug resistance | – | – | – | – | – | –
Arsenic trioxide | 0.9683 | 0.9697 | 0.8821 | 1.015 | – | 1.115 | – | – | – | – | – | – | –
Bleomycin | 0.921 | 1.039 | 1.025 | 0.96 | – | – | – | – | – | – | – | – | –
Dabrafenib mesylate | 0.7923 | 0.8383 | 0.912 | 0.7733 | 0.8008 | 0.913 | – | – | – | – | – | – | –
